Like-named read-outs stand apart in the source and are kept apart here.
How the values were obtained:
[1] = test system: human subject; assay: Blood pressure, plasma renin activity and serum aldosterone as a function of eplerenone dose (FIG. 10-12); format: in vivo; conditions: increasing doses
Excerpt: For example, appropriate dosing can be determined by monitoring systolic blood pressure. […] Accordingly, subjects can be treated with doses of one or more epoxy-steroidal compounds according to the present invention by increasing doses of such compounds in a step-wise manner until a minimal levels of systolic blood pressure decrease are achieved while, at the same time, also maintaining serum levels of potassium within the normal range. Similarly, appropriate dosing can also be determined by monitoring diastolic blood pressure. […] Accordingly, subjects can be treated with doses of one or more epoxy-steroidal compounds according to the present invention by increasing doses of such compounds in a step-wise manner until a minimal level of diastolic blood pressure change are achieved while, at the same time, also maintaining serum levels of potassium within the normal range. Appropriate dosing can also be determined by monitoring plasma renin activity. […] Accordingly, subjects can be treated with doses of one or more epoxy-steroidal compounds according to the present invention by increasing doses of such compounds in a step-wise manner until the desired level of plasma renin activity is achieved while, at the same time, maintaining serum levels of potassium within the normal range. Appropriate dosing can also be determined by monitoring serum aldosterone levels. […] Accordingly, subjects can be treated with doses of one or more epoxy-steroidal compounds according to the present invention by increasing doses of such compounds in a step-wise manner until the desired level of serum aldosterone is achieved while, at the same time, also maintaining serum levels of potassium within the normal range.

[2] = Food effect pharmacokinetic studies, Japan and Ex-Japan (Example A-11); format: in vivo, human; conditions: single 100 mg; for AUC(0-inf) / Cmax / AUC: male, human, in vivo, oral, 100 mg; for AUC: read-out: AUC (0-lqc)
Method: The […] trials included (i) a single dose tolerability trial, and (ii) a multiple dose tolerability trial, and (iii) a food effect study.
Both single dose and multiple dose tolerability trials were conducted in Japan utilizing healthy male Japanese subjects. […] Six subjects who received the 100 mg dose also participated in the food effect treatment arm of the single dose tolerability trial.
Table A-11C contains the geometric least squares means for the fed and fasting regimens, the ratios of means and the corresponding 95% confidence intervals (CI) for the ratios of the means for the Japan and Ex-Japan food effect trials.
Each panel consisted of six subjects who were given eplerenone and two subjects who were given placebo.

[3] = test system: L-NAME/Angiotensin II/NaCl-treated rats; assay: L-NAME/Angiotensin II/NaCl model of cardiac and renal injury (Example A-1); format: in vivo, Male Wistar rats
Method: Animals. Male Wistar rats (n=44), weighing 200 to 225 grams, and obtained from Charles River Laboratories (Wilmington, Mass.) were used in the study. All animals were housed in a room lighted 12 hours per day at an ambient temperature of 22±1° C. Animals were allowed one week to recover after arrival and had free access to Purina Lab Chow 5001 (Ralston Purina Inc, St. Louis, Mo.) and tap water until the initiation of the experiment. After initiation of the protocols, animals in all groups were placed in individual metabolic cages, handled and weighed daily. Twenty-four hour fluid intake, food intake and urine output were measured daily. […] On day 14 of L-NAME treatment, animals were decapitated, trunk blood was collected into chilled tubes containing ethylene diamine tetraacetic acid and the heart and kidneys were removed, blotted dry and immediately weighed. […] Drugs. Eplerenone was supplied by G.D. Searle Pharmaceuticals (St. […] Dexamethasone was dissolved in sesame oil and administered as a single subcutaneous dose (12 μg/kg/day) every day. This dose of dexamethasone has been reported to, maintain normal weight gain, glomerular filtration rate, and fasting plasma glucose and insulin levels in adrenalectomized rats. Stanton, B., Giebisch G et al. J. Clin. Invest 1985 75:1317-1326. The experiment was concluded on day 14 of L-NAME treatment. […] (Hou J et al. J. Clin. Invest 1995 96:2469-2477. […] This lower dose induced lesions in stroke-prone spontaneously hypertensive rats. (Rocha R et al. […] Dexamethasone, aldosterone and L-NAME were purchased from Sigma Chemical Co. (St. Louis, Mo.). […] Surgical Procedure. […] Bilateral adrenalectomy was performed using a dorsolumbar approach, making separate incisions on each side. […] No post operative deaths occurred. Assays and Analyses. Systolic blood pressure was measured in awake animals by tail-cuff plethysmography using a Natsume KN-210 manometer and tachometer (Peninsula Laboratories Inc, Belmont, Calif.). Rats were warmed at 37° C. for 10 minutes and allowed to rest quietly in a Lucite chamber before measurement of blood pressure. Urinary protein concentration was determined in urine collected on the last day of the experiment using the sulfosalicylic acid turbidity method. […] Plasma aldosterone concentration was determined using a standard radioimmunoassay-kit from Diagnostic Products Co. (Los Angeles, Calif.). Plasma renin activity (“PRA”) was determined by radioimmunoassay detection of generated angiotensin I (DiaSorin Inc., Stillwater, Minn.). Histology. Hearts were stained with collagen specific dye Sirius red for determination of fibrosis as reported elsewhere. (Young M et al. Am. J. Physiol 1995 269:[…]-[…]). Interstitial collagen was determined using an automated image analyzer. The hearts were also stained with hematoxylin and eosin for light microscopic analysis. Two or three slices of different sections of the heart containing both right and left ventricle were analyzed from each animal. […] Glomerular damage, when present, was characterized as the presence of either segmental or global sclerosis with ischemic or thrombotic changes. Renal arterial and arteriolar damage was categorized as the presence of fibrinoid necrosis of the vascular wall. The renal arterial and arteriolar profiles presenting damage were counted and the number of injured vessels per section was divided by the number of glomeruli in the same section in order to normalize for the amount of tissue examined. […] Statistical analysis. Data were tested for normality using the Kolmogorov-Smirnov test. Systolic blood pressure was analyzed using repeated measures-analysis of variance for time and treatment group. One-way analysis of variance was used for normally distributed data with one grouping variable. Post-hoc analysis was performed using Newman Keuls multiple-comparison test. Data that were not normally distributed were analyzed with the Kruskal-Wallis test. […]

[4] = test system: black and white patients with mild-to-moderate hypertension; conditions: for Active Renin (% change) / ΔDBP / ΔSBP: baseline to Week 16

For `COC(=O)[C@@H]1CC2=CC(=O)CC[C@]2(C)[C@@]23O[C@@H]2C[C@@]2(C)[C@@H](CC[C@@]24CCC(=O)O4)[C@H]13` [Eplerenone, Pregn-4-ene-7,21-dicarboxylic acid, 9,11-epoxy-17-hydroxy-3-oxo-, γ-lactone, methyl ester, (7α, 11α, 17β)-], the “systolic blood pressure as a function of dose” value ([1]; FIG. 10) was “decreased systolic blood pressure”, the “diastolic blood pressure as a function of dose” value ([1]; FIG. 11) was “decreased diastolic blood pressure” and the “plasma renin activity as a function of dose” value ([1]; FIG. 12) was “increased levels of plasma renin activity”. The “serum aldosterone as a function of dose” value ([1]; FIG. 12) was “increased levels of serum aldosterone”, the “AUC (0-inf) Mean Ratio fed/fasted” value ([2]; Ex-Japan) was 1.079 and the “AUC (0-inf) Mean Ratio fed/fasted” value ([2]; Japan) was 1.218. The AUC(0-inf) ([2]; Ex-Japan, Fasted) was 9060 ng·h/mL, the Cmax ([2]; Ex-Japan, Fasted) was 1620 ng/mL and the AUC ([2]; Ex-Japan, Fasted) was 8940 ng·h/mL. The AUC(0-inf) ([2]; Ex-Japan, Fed) was 9780 ng·h/mL, the Cmax ([2]; Ex-Japan, Fed (high fat meal)) was 1320 ng/mL and the AUC ([2]; Ex-Japan, Fed) was 9650 ng·h/mL. For the same compound, the AUC(0-inf) ([2]; Japan, Fasted) was 8970 ng·h/mL, the Cmax ([2]; Japan, Fasted) was 1310 ng/mL and the AUC(0-inf) ([2]; Japan, Fed) was 10900 ng·h/mL. For the same compound, the Cmax ([2]; Japan, Fed) was 1520 ng/mL, the “HW/BW (cardiac hypertrophy index)” value ([3]; end of experiment (day 14), Epl 100 mg/kg/day p.o., ALDO 40 μg/kg/day in adrenalectomized rats) was “significantly reduced cardiac hypertrophy” and the SBP ([3]; end of experiment, Epl 100 mg/kg/day p.o., ALDO 40 μg/kg/day in adrenalectomized rats) was “not appreciably influenced”. For the same compound, the “urinary protein excretion (24 hour)” value ([3]; end of two-week treatment, eplerenone 100 mg/kg/day p.o.) was “prevented the development of proteinuria”, the “cardiac injury / myocardial necrosis (histopathology)” value ([3]; eplerenone 100 mg/kg/day p.o., vs L-NAME/Angiotensin II/NaCl) was “markedly reduced” and the “treatment of mild-to-moderate hypertension in black hypertensive patients” value ([4]; 16 weeks) was “superior to losartan”. The “Active Renin (% change)” value ([4]; All Patients) was “+45.6%”, the ΔDBP ([4]; All Patients) was −10.3 mmHg and the ΔSBP ([4]; All Patients) was −12.8 mmHg. The “Active Renin (% change)” value ([4]; Black Patients) was “+39.3%”, the ΔDBP ([4]; Black Patients) was −10.2 mmHg and the ΔSBP ([4]; Black Patients) was −13.5 mmHg. For the same compound, the “adjusted mean percent change from baseline in UACR” value ([4]; Week 16, EPL 50-200 mg QD, LOS 50-100 mg QD) was −21.6%, the “Active Renin (% change)” value ([4]; White Patients) was “+57.1%” and the ΔDBP ([4]; White Patients) was −11.1 mmHg. The ΔSBP ([4]; White Patients) was −12.3 mmHg and the safety and tolerability ([4]; human, in vivo) was “safe and well-tolerated”.
